Results as given in patent US20230085307A1, “PYRIDAZINONE COMPOUND AND HERBICIDE” (NISSAN CHEMICAL CORPORATION, priority 2019, published 2023).

How the values were obtained:
barnyard grass [1] = experiment: Test Example 3: herbicidal effect by foliage application, Wagner pot (Table 18, symbol H); assay type: in vivo, barnyard grass (Echinochloa crus-galli); conditions: 320 g/ha
Outline: (§1)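 Plants were sown in alluvial soil held under 0.1–0.5 cm standing water and grown 14 days in a greenhouse at 25–30 °C. An emulsifiable formulation, water-diluted to the set dose, was then sprayed onto the foliage, and effects were scored three weeks later using previously defined criteria.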

Chinese sprangletop = experiment: Test Example 3: herbicidal effect by foliage application, Wagner pot (Table 18, symbol D); assay type: in vivo, chinese sprangletop (Leptochloa chinensis); conditions: 320 g/ha
Outline: as §1

rice flat sedge = experiment: Test Example 3: herbicidal effect by foliage application, Wagner pot (Table 18, symbol E); assay type: in vivo, rice flat sedge (Cyperus iria); conditions: 320 g/ha
Outline: as §1

southern crabgrass [2] = experiment: Test Example 4: herbicidal effect by soil treatment (Table 19, symbol F); assay type: in vivo, southern crabgrass (Digitaria ciliaris); conditions: amount of applied herbicide 320 g/ha
Outline: (§2)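 Emulsion of test compound, water-diluted to predetermined amount, sprayed on soil after sowing (seed depth ~1.5 cm, sterilized diluvial soil). Greenhouse, 25–30° C. Effect graded at three weeks post-spray.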

green foxtail [3] = experiment: Test Example 4: herbicidal effect by soil treatment (Table 19, symbol G); assay type: in vivo, green foxtail (Setaria viridis); conditions: amount of applied herbicide 320 g/ha
Outline: as §2

barnyard grass [4] = experiment: Test Example 4: herbicidal effect by soil treatment (Table 19, symbol H); assay type: in vivo, barnyard grass (Echinochloa crus-galli); conditions: amount of applied herbicide 320 g/ha
Outline: as §2

wild oat [5] = experiment: Test Example 4: herbicidal effect by soil treatment (Table 19, symbol I); assay type: in vivo, wild oat (Avena fatua); conditions: amount of applied herbicide 320 g/ha
Outline: as §2

blackgrass [6] = experiment: Test Example 4: herbicidal effect by soil treatment (Table 19, symbol J); assay type: in vivo, blackgrass (Alopecurus myosuroides); conditions: amount of applied herbicide 320 g/ha
Outline: as §2

Italian ryegrass [7] = experiment: Test Example 4: herbicidal effect by soil treatment (Table 19, symbol K); assay type: in vivo, Italian ryegrass (Lolium multiflorum); conditions: amount of applied herbicide 320 g/ha
Outline: as §2

windgrass [8] = experiment: Test Example 4: herbicidal effect by soil treatment (Table 19, symbol L); assay type: in vivo, windgrass (Apera spica-venti); conditions: amount of applied herbicide 320 g/ha
Outline: as §2

velvetleaf [9] = experiment: Test Example 4: herbicidal effect by soil treatment (Table 19, symbol M); assay type: in vivo, velvetleaf (Abutilon theophrasti); conditions: amount of applied herbicide 320 g/ha
Outline: as §2

redroot pigweed = experiment: Test Example 4: herbicidal effect by soil treatment (Table 19, symbol N); assay type: in vivo, redroot pigweed (Amaranthus retroflexus); conditions: amount of applied herbicide 320 g/ha
Outline: as §2

lambsquarters [10] = experiment: Test Example 4: herbicidal effect by soil treatment (Table 19, symbol O); assay type: in vivo, lambsquarters (Chenopodium album); conditions: amount of applied herbicide 320 g/ha
Outline: as §2

chickweed [11] = experiment: Test Example 4: herbicidal effect by soil treatment (Table 19, symbol P); assay type: in vivo, common chickweed (Stellaria media); conditions: amount of applied herbicide 320 g/ha
Outline: as §2

false cleavers [12] = experiment: Test Example 4: herbicidal effect by soil treatment (Table 19, symbol Q); assay type: in vivo, false cleavers (Galium spurium); conditions: amount of applied herbicide 320 g/ha
Outline: as §2

persian speedwell [13] = experiment: Test Example 4: herbicidal effect by soil treatment (Table 19, symbol R); assay type: in vivo, Persian speedwell (Veronica persica); conditions: amount of applied herbicide 320 g/ha
Outline: as §2

southern crabgrass [14] = experiment: Test Example 5: herbicidal effect by foliage application, plastic box (Table 20, symbol F); assay type: in vivo, southern crabgrass (Digitaria ciliaris); conditions: foliage application, AAH 320 g/ha, three weeks after application
Outline: (§3)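 Post-emergence foliar test in sterilized diluvial soil. Compound applied as water-diluted emulsion at a predetermined rate to 14-day-old plants; evaluation at three weeks.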

green foxtail [15] = experiment: Test Example 5: herbicidal effect by foliage application, plastic box (Table 20, symbol G); assay type: in vivo, green foxtail (Setaria viridis); conditions: foliage application, AAH 320 g/ha, three weeks after application
Outline: as §3

barnyard grass [16] = experiment: Test Example 5: herbicidal effect by foliage application, plastic box (Table 20, symbol H); assay type: in vivo, barnyard grass (Echinochloa crus-galli); conditions: foliage application, AAH 320 g/ha, three weeks after application
Outline: as §3

wild oat [17] = experiment: Test Example 5: herbicidal effect by foliage application, plastic box (Table 20, symbol I); assay type: in vivo, wild oat (Avena fatua); conditions: foliage application, AAH 320 g/ha, three weeks after application
Outline: as §3

blackgrass [18] = experiment: Test Example 5: herbicidal effect by foliage application, plastic box (Table 20, symbol J); assay type: in vivo, blackgrass (Alopecurus myosuroides); conditions: foliage application, AAH 320 g/ha, three weeks after application
Outline: as §3

Italian ryegrass [19] = experiment: Test Example 5: herbicidal effect by foliage application, plastic box (Table 20, symbol K); assay type: in vivo, Italian ryegrass (Lolium multiflorum); conditions: foliage application, AAH 320 g/ha, three weeks after application
Outline: as §3

windgrass [20] = experiment: Test Example 5: herbicidal effect by foliage application, plastic box (Table 20, symbol L); assay type: in vivo, windgrass (Apera spica-venti); conditions: foliage application, AAH 320 g/ha, three weeks after application
Outline: as §3

velvetleaf [21] = experiment: Test Example 5: herbicidal effect by foliage application, plastic box (Table 20, symbol M); assay type: in vivo, velvetleaf (Abutilon theophrasti); conditions: foliage application, AAH 320 g/ha, three weeks after application
Outline: as §3

lambsquarters [22] = experiment: Test Example 5: herbicidal effect by foliage application, plastic box (Table 20, symbol O); assay type: in vivo, lambsquarters (Chenopodium album); conditions: foliage application, AAH 320 g/ha, three weeks after application
Outline: as §3

chickweed [23] = experiment: Test Example 5: herbicidal effect by foliage application, plastic box (Table 20, symbol P); assay type: in vivo, common chickweed (Stellaria media); conditions: foliage application, AAH 320 g/ha, three weeks after application
Outline: as §3

false cleavers [24] = experiment: Test Example 5: herbicidal effect by foliage application, plastic box (Table 20, symbol Q); assay type: in vivo, false cleavers (Galium spurium); conditions: foliage application, AAH 320 g/ha, three weeks after application
Outline: as §3

persian speedwell [25] = experiment: Test Example 5: herbicidal effect by foliage application, plastic box (Table 20, symbol R); assay type: in vivo, Persian speedwell (Veronica persica); conditions: foliage application, AAH 320 g/ha, three weeks after application
Outline: as §3

Cc1nn(C)c(=O)c(-c2c(-c3ccc4c(c3)OC(F)(F)O4)sc3ccccc23)c1O [1-099]
herbicidal effect on H (barnyard grass), rating 0-5 (barnyard grass [1]): 0 (Herbicidal rate of 5% or less (almost no effect)) | herbicidal effect on D (Chinese sprangletop), rating 0-5 (Chinese sprangletop): 0 (Herbicidal rate of 5% or less (almost no effect)) | herbicidal effect on E (rice flat sedge), rating 0-5 (rice flat sedge): 5 (Herbicidal rate of 90% or more (almost completely withered)) | herbicidal effect rating, F: southern crabgrass (southern crabgrass [2]): 0 (Herbicidal rate of 5% or less (almost no effect)) | herbicidal effect rating, G: green foxtail (green foxtail [3]): 0 (Herbicidal rate of 5% or less (almost no effect)) | herbicidal effect rating, H: barnyard grass (barnyard grass [4]): 0 (Herbicidal rate of 5% or less (almost no effect)) | herbicidal effect rating, I: wild oat (wild oat [5]): 0 (Herbicidal rate of 5% or less (almost no effect)) | herbicidal effect rating, J: blackgrass (blackgrass [6]): 0 (Herbicidal rate of 5% or less (almost no effect)) | herbicidal effect rating, K: Italian ryegrass (Italian ryegrass [7]): 0 (Herbicidal rate of 5% or less (almost no effect)) | herbicidal effect rating, L: windgrass (windgrass [8]): 0 (Herbicidal rate of 5% or less (almost no effect)) | herbicidal effect rating, M: velvetleaf (velvetleaf [9]): 0 (Herbicidal rate of 5% or less (almost no effect)) | herbicidal effect rating, N: redroot pigweed (redroot pigweed): 0 (Herbicidal rate of 5% or less (almost no effect)) | herbicidal effect rating, O: lambsquarters (lambsquarters [10]): 0 (Herbicidal rate of 5% or less (almost no effect)) | herbicidal effect rating, P: chickweed (chickweed [11]): 4 (Herbicidal rate of 70% or more and less than 90%) | herbicidal effect rating, Q: false cleavers (false cleavers [12]): 2 (Herbicidal rate of 20% or more and less than 40%) | herbicidal effect rating, R: persian speedwell (persian speedwell [13]): 5 (Herbicidal rate of 90% or more (almost completely withered)) | F: southern crabgrass, herbicidal effect (southern crabgrass [14]): 0 (Herbicidal rate of 5% or less (almost no effect)) | G: green foxtail, herbicidal effect (green foxtail [15]): 0 (Herbicidal rate of 5% or less (almost no effect)) | H: barnyard grass, herbicidal effect (barnyard grass [16]): 0 (Herbicidal rate of 5% or less (almost no effect)) | I: wild oat, herbicidal effect (wild oat [17]): 0 (Herbicidal rate of 5% or less (almost no effect)) | J: blackgrass, herbicidal effect (blackgrass [18]): 1 (Herbicidal rate of 5% or more and less than 20%) | K: Italian ryegrass, herbicidal effect (Italian ryegrass [19]): 3 (Herbicidal rate of 40% or more and less than 70%) | L: windgrass, herbicidal effect (windgrass [20]): 0 (Herbicidal rate of 5% or less (almost no effect)) | M: velvetleaf, herbicidal effect (velvetleaf [21]): 5 (Herbicidal rate of 90% or more (almost completely withered)) | O: lambsquarters, herbicidal effect (lambsquarters [22]): 3 (Herbicidal rate of 40% or more and less than 70%) | P: chickweed, herbicidal effect (chickweed [23]): 5 (Herbicidal rate of 90% or more (almost completely withered)) | Q: false cleavers, herbicidal effect (false cleavers [24]): 2 (Herbicidal rate of 20% or more and less than 40%) | R: persian speedwell, herbicidal effect (persian speedwell [25]): 5 (Herbicidal rate of 90% or more (almost completely withered))
